What was measured:
[1] = system: Uptake of Phosphate from the Intestine; assay: In vivo bolus phosphorus challenge; design: species or system Sprague-Dawley rats; conditions: rats on low-phosphorus diet, oral drug dose 30 (unit not given) 15 min before phosphate bolus, serum 30 min post bolus
Method: By pretreating animals with a low phosphorus diet followed by the subsequent dosing of a phosphorus bolus, serum phosphorus levels were monitored after 30 minutes as a surrogate for intestinal phosphorus absorption. […] The in vivo bolus phosphorus challenge model used here mimics this model in rats.
Male, 7-week-old Sprague-Dawley rats (Charles-River laboratories international, Hollister, Calif.) were allowed to acclimatize for a minimum of 3 days before switching to a synthetic low-phosphorus diet (TD.85010, Harlan Teklad, Madison, Wis.) which contains 0.1% phosphorus and 0.6% calcium. At day 5, testing compounds or vehicle alone (as indicated) were orally administered at the indicated dose in a volume of 5 ml/kg, followed by a bolus gavage of monobasic sodium phosphate (1 mmol in 1 ml) 15 min after compound dosing. Serum was collected via retroorbital bleeding 30 min post phosphate bolus and phosphate levels were determined utilizing an ACE ALERA blood chemistry analyzer (Alfa Wassermann Diagnostic Technologies, West Caldwell, N.J.).
The extent of inhibition by test compounds on the elevation of serum phosphate levels in response to the bolus of phosphate is shown in Table 3 (data are expressed as % Inhibition, with 6-10 animals per data point). The differences between groups were evaluated by one-way analysis of variance with Dunnett's post hoc tests.

[2] = system: NaPi2b; assay: Competition with phosphate: uptake assay repeated at 2.1 vs 0.1 mM phosphate; type: cell-based; conditions: potency for inhibition of NaPi2b at 2.1 vs 0.1 mM phosphate
Text: In certain preferred embodiments, the phosphate transport inhibitors of the present invention are not competitive inhibitors with respect to phosphate of Na/phosphate co-transport. In certain other preferred embodiments, the phosphate transport inhibitors of the invention are non-competitive inhibitors. Non-competitive inhibitors maintain their degree of inhibition irrespective of the local phosphate concentration. This feature is an important aspect in providing an efficient blockade of intestinal transport in postprandial state, where the local concentration of dietary phosphate can attain concentration as high as 10 mM. It is believed that competitive inhibitors are too sensitive to local phosphate concentration and unable to block phosphate uptake following a high phosphorus meal. Various methods are available for determining whether a phosphate transport inhibitor is non-competitive or competitive. For example, a phosphate uptake assay can be performed and the IC50 values for a compound at different phosphate concentrations can be determined (e.g., “Enzyme kinetics”, I. Segel, 1975, John-Wiley & Sons, p. 123). IC50 values for non-competitive inhibitors will remain the same or similar with respect to the phosphate concentration, whereas IC50 values for competitive inhibitors will increase (i.e. lose potency) as phosphate concentration increases.
To ascertain if an inhibitor was competitive for binding with phosphate, the procedure was repeated, but raising the concentration of the substrate in the assay mixture from 0.1 to 2.1 mM phosphate.

[3] = Stability in simulated gastric and intestinal fluid; type: in vitro ADME; conditions: 6 hr, 1-20 μM; for % remaining, SGF: simulated gastric fluid with 3 mg/mL pepsin; for % remaining, SIF: simulated intestinal fluid with 3 mg/mL pancreatin
Method: Test compounds were incubated at 1-20 μM in simulated gastric fluid (SGF; standard USP solution with 3 mg/mL pepsin) or simulated intestinal fluid (SIF; standard USP solution with 3 mg/mL pancreatin) for 3 hr or 6 hr. HPLC-UV or HPLC-MS were used to determine test compound levels using peak area %. Results (Table 5) were reported as the percentage of test compound remaining after incubation in a given condition relative to test compound present at t=0 in the same condition.

[4] = system: Uptake of Phosphorus from the Intestine; assay: In vivo co-dosing in chow, urinary P output relative to P consumed; design: species or system Sprague-Dawley rats; conditions: rats, compound in chow, nominal 100 mg/kg/day (mean actual 104-105 mg/kg/day), mean of 24-96 h, vs control
Text: Male, 7-week-old Sprague-Dawley rats (Charles-River laboratories international, Hollister, Calif.) were allowed to acclimate for a minimum of 3 days. The experiment was initiated by switching animals to a synthetic diet (0.6% phosphorus and 0.6% calcium, Harlan Teklad TD.84122) for four days. After this time, the animals were placed into metabolic cages for daily monitoring of food and water consumption, as well as urine and fecal collections. Test compounds were incorporated into the powdered diet listed above containing 3% chocolate flavoring (w/w, BioSery #7345) at 1.3 mg test compound per gram of diet to achieve an average daily nominal dose of 100 mg/kg/day. The actual dose received by each animal was later determined by measuring prepared diet consumption and body weight. Urine samples were collected in three daily periods from 24-48, 48-72, and 72-96 hours of drug dosing. […] Phosphorous levels in the urine were determined by anion exchange chromatography using a Dionex ICS-3000 ion chromatography system. […] Elution of urine phosphate ions was monitored via conductivity detector and reported as ppm relative to a standard ion solution containing phosphate. Daily urinary P output relative to the P consumed in the prepared diet for each animal was calculated. […] The differences between the means of control and treated groups were evaluated by t tests. […]

| SMILES | % Inhibition of Serum P elevation [1] [%] | Competitive with respect to Pi? [2] | % remaining, SGF [3] [%] | % remaining, SIF [3] [%] | Mean % inhibition Urine Pout/P consumed [4] [%] |
| --- | --- | --- | --- | --- | --- |
| CN(CCN1CCOCC1)C(=O)c1cccc(C(=O)Nc2ccc(N3CCCCC3)cc2C(=O)Nc2ccn(-c3cccc(C(F)(F)F)c3)n2)c1 [Example 11, N1-Methyl-N1-(2-morpholinoethyl)-N3-(4-(piperidin-1-yl)-2-((1-(3-(trifluoromethyl)phenyl)-1H-pyrazol-3-yl)carbamoyl)phenyl)isophthalamide] | 30.0 | No |  |  |  |
| CN(CCN1CCOCC1)C(=O)c1cccc(C(=O)Nc2ccc(Cl)cc2C(=O)Nc2ccn(-c3cccc(C(F)(F)F)c3)n2)c1 [Example 14, N1-(4-Chloro-2-((1-(3-(trifluoromethyl)phenyl)-1H-pyrazol-3-yl)carbamoyl)phenyl)-N3-methyl-N3-(2-morpholinoethyl)isophthalamide 2,2,2-trifluoroacetate] |  |  | 93 | 72 | 12 |
| O=C(O)CCOCCOCCOCCNC(=O)Cc1cccc(SCc2cccc(C(=O)Nc3ccc(N4CCCCC4)cc3C(=O)Nc3ccn(-c4cccc(C(F)(F)F)c4)n3)c2)c1 [Example 26, 2-Oxo-1-(3-((3-((4-(piperidin-1-yl)-2-((1-(3-(trifluoromethyl)phenyl)-1H-pyrazol-3-yl)carbamoyl)phenyl)carbamoyl)benzyl)thio)phenyl)-6,9,12-trioxa-3-azapentadecan-15-oic acid] |  | No | 91 | 95 |  |

— patent US9289430B2, “Compounds and methods for inhibiting phosphate transport” (Ardelyx, Inc., priority 2010, dated 2016)
